ChEMBL document CHEMBL1201862, “PubChem BioAssay data set” (2004)
Activity calls are given as the source filed them.

What was measured:
[1] = control 3'UTR Renilla luciferase suppression, dose response, counter-screen for Shn3 inhibitor project, cell-based, Clone20-Shn3RL, cherry-picked (AID 624133); assay type: functional
[2] = target: T1, Nucleotide-binding oligomerization domain-containing protein 1 (Homo sapiens, UniProt Q9Y239); assay: NOD1 signaling inhibitors, SAR follow-up, revised (AID 2333); assay type: functional
T1 sequence (Q9Y239 whole entry): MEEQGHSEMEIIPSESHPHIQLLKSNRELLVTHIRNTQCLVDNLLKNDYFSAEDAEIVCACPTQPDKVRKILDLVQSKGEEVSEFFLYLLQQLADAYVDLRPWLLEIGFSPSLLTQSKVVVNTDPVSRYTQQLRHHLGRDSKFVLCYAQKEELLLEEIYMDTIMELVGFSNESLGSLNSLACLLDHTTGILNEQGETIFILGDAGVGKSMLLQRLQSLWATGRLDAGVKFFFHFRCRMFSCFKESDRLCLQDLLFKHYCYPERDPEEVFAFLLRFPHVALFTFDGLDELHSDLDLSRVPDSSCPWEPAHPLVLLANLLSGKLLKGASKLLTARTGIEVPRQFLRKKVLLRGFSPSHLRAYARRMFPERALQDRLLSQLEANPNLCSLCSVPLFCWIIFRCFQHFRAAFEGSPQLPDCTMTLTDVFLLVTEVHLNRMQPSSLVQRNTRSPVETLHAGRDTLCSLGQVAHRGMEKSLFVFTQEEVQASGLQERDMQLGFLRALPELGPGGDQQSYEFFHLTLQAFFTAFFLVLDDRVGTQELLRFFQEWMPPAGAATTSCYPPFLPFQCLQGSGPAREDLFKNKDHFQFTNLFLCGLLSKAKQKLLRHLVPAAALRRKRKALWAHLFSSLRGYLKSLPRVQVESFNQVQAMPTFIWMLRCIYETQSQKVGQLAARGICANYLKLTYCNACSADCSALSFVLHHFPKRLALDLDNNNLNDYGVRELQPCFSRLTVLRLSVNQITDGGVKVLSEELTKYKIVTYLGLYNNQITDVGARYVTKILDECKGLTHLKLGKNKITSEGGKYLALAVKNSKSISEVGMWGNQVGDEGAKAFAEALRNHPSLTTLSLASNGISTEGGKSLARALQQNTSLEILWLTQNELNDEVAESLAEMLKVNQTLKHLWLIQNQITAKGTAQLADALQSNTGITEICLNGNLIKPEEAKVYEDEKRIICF

[3] = target: 72 kDa type IV collagenase (Homo sapiens, UniProt P08253); assay: Dose Response validation of uHTS RPN11 inhibitor hits using a MMP-2 Fluorescence assay.; assay type: functional
[4] = Shn3 3'UTR reporter inhibitors, dose response, cell-based, Clone20 osteoblasts, firefly luciferase, cherry-picked (AID 624132); assay type: functional;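 further: firefly luciferase luminescence from reporter carrying the Shn3 3'UTR in osteoblasts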
[5] = tested on: HEK293; assay: cells; assay type: functional, cell-based; settings: Homo sapiens
[6] = tested on: HEK293; assay: cells; assay type: functional, cell-based; settings: Homo sapiens; remark: listed apart in the source
[7] = target: Tumor necrosis factor (Homo sapiens, UniProt P01375); assay: TNFa-triggered NF-kB activation inhibitors, SAR follow-up, cell-based, revised (AID 2337); assay type: functional
[8] = tested on: HEK293; assay: inhibitors of LMP1-driven NF-kB reporter, dose response, cell-based, HEK293, luciferase, cherry-pick (AID 588343); assay type: functional; settings: Homo sapiens
[9] = target: Nucleotide-binding oligomerization domain-containing protein 2 (Homo sapiens, UniProt Q9HC29); assay: NOD2 signaling inhibitors, cell-based, luminescence, uHTS, HEK293 (AID 1566); assay type: functional
[10] = tested on: HEK293; assay: cells; settings: Homo sapiens
[11] = tested on: INS1; assay: beta cell apoptosis inhibitors, cytokine rescue, dose response, luminescence, retest (AID 449756); assay type: functional, cell-based; settings: Rattus norvegicus;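 further: cell death triggered by IL-1 beta plus TNF-alpha plus IFN-gamma mixture; protective hits raise ATP signal compared with cytokine alone wells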
[12] = target: 26S proteasome non-ATPase regulatory subunit 14 (Homo sapiens, UniProt O00487); assay: inhibition of proteasome subunit RPN11 – biochemical, fluorescence polarization, uHTS hits, confirmation (AID 602368); assay type: functional
[13] = tested on: HEK293; assay: NOD2 signaling inhibitors in MDP-stimulated cells, cell-based, uHTS, luminescence (AID 2001); assay type: functional; settings: Homo sapiens
[14] = HepG2 cell cytotoxicity, dose response, cytotoxicity control for Shn3 inhibitor project, CellTiter-Glo, cherry-picked (AID 624134); assay type: functional, cell-based
[15] = tested on: HEK293; assay: cells; assay type: functional, cell-based; settings: Homo sapiens; remark: listed apart in the source
[16] = target: Prothrombin (Bos taurus, UniProt P00735); assay: thrombin inhibition, dose response, biochemical, fluorescence polarization, uHTS hits (AID 602369); assay type: functional
[17] = tested on: HEK293; assay: NOD1 signaling inhibitors, primary screen, cell-based, luminescence, uHTS (AID 1578); assay type: functional; settings: Homo sapiens
[18] = target: T2, Apoptotic protease-activating factor 1 (Homo sapiens, UniProt O14727); assay: SAR analysis of small molecule Activators of Apaf-1 in a Fluorescent assay.; assay type: functional; settings: read-out: EC50_Mean;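 further: caspase-3 cleavage of fluorogenic Rh110 DEVD substrate downstream of apoptosome activation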
T2 sequence (O14727 whole entry): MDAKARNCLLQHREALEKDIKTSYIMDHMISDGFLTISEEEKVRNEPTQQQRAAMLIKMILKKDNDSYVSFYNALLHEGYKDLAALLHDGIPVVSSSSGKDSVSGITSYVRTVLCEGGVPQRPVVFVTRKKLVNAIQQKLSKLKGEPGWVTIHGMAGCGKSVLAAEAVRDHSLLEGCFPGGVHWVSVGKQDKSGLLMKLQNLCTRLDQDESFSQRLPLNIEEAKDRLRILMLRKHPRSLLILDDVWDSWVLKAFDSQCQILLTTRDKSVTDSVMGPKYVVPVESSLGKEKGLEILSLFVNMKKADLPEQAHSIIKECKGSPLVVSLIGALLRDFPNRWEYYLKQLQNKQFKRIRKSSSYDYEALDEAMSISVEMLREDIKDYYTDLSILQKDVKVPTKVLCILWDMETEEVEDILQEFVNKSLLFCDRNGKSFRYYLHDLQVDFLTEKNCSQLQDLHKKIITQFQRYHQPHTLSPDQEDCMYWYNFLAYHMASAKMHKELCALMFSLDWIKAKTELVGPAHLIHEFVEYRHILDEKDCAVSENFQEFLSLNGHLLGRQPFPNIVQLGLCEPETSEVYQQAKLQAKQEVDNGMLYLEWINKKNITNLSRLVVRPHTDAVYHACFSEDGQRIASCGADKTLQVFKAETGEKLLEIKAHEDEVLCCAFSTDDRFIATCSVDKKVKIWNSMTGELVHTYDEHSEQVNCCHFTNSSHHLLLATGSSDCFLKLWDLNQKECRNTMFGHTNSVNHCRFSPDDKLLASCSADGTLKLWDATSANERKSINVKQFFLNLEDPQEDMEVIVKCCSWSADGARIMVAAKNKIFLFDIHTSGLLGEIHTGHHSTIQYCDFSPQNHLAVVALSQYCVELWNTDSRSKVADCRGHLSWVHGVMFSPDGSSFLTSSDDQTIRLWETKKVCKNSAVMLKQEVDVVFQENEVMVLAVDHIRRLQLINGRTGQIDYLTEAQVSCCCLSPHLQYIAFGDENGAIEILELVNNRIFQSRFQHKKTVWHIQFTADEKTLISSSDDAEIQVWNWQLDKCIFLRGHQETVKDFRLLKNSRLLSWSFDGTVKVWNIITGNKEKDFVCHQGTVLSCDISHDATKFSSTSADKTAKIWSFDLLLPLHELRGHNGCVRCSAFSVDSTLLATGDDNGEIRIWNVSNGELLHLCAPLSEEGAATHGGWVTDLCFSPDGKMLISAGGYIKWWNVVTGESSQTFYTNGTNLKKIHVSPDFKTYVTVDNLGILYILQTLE

[19] = target: T3, Sentrin-specific protease 8 (Homo sapiens, UniProt Q96LD8); assay type: functional
T3 sequence (Q96LD8 whole entry): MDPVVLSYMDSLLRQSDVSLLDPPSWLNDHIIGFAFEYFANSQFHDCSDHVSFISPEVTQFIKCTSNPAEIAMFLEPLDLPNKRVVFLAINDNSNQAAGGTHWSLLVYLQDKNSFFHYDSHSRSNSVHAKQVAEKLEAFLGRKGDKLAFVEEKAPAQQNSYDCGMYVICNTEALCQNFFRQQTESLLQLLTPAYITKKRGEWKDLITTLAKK

[20] = target: T3, Sentrin-specific protease 8; assay type: functional; remark: listed apart in the source
[21] = HEK293T cell cytotoxicity, dose response, cytotoxicity control for HIV Vif inhibitor project, cherry-picks (AID 652208); assay type: functional, cell-based
[22] = target: Tyrosine-protein phosphatase non-receptor type 11 (Homo sapiens, UniProt Q06124); assay: SHP2 phosphatase inhibition, dose response, selectivity assay for STEP inhibitor project, biochemical (AID 602367); assay type: functional; settings: read-out: IC50_Mean
[23] = target: Tyrosine-protein phosphatase non-receptor type 5 (Homo sapiens, UniProt P54829); assay: STEP phosphatase inhibitors, confirmation, biochemical, fluorescence intensity, uHTS hits (AID 602372); assay type: functional; settings: read-out: IC50_Mean
[24] = target: T4, Trace amine-associated receptor 1 (Homo sapiens, UniProt Q96RJ0); assay: Counterscreen for agonists of the human trace amine associated receptor 1 (hTAAR1): Fluorescence-based cell-based high throughput dose response assay to identify hTAAR1 agonist that also desensitize TAAR1 receptor response.; assay type: functional
T4 sequence (Q96RJ0 whole entry): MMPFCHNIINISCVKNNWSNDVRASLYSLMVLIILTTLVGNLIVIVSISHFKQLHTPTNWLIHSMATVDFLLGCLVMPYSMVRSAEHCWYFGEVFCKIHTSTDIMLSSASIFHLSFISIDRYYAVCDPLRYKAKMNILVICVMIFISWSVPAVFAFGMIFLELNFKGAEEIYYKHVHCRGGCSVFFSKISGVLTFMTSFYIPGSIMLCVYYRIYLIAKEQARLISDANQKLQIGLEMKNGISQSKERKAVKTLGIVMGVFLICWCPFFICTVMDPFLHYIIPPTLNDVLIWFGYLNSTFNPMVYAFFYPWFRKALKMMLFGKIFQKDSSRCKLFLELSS

[25] = target: T4, Trace amine-associated receptor 1; assay: Fluorescence-based cell-based high throughput dose response assay to identify agonists of the human trace amine associated receptor 1 (TAAR1).; assay type: functional
[26] = target: Dual specificity protein phosphatase 3 (Homo sapiens, UniProt P51452); assay: VHR phosphatase inhibition, dose response, selectivity assay for STEP inhibitor project, biochemical (AID 602374); assay type: functional; settings: read-out: IC50_Mean
[27] = cells; assay type: functional, cell-based
[28] = cells; assay type: functional, cell-based; remark: listed apart in the source
[29] = LMP1-driven NF-kB reporter inhibition, dose response, cell-based, luciferase reporter, luminescence, dry powder, set 2 (AID 624376); assay type: functional
[30] = target: Cyclin-dependent kinase 19 (Homo sapiens, UniProt Q9BWU1); assay: Navigating the Kinome. Panel member name: CDC2L6; assay type: functional
[31] = target: ALK tyrosine kinase receptor (Homo sapiens, UniProt Q9UM73); assay type: functional;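 further: ALK tested as one member of a kinase panel screen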
[32] = target: Adenosylmethionine-8-amino-7-oxononanoate aminotransferase (Mycobacterium tuberculosis, UniProt P9WQ81); assay: Mycobacterium tuberculosis BioA enzyme inhibitor Measured in Biochemical System Using Plate Reader - 2163-02_Inhibitor_Dose_CherryPick_Activity.; assay type: functional, Mycobacterium tuberculosis UT205
[33] = target: T5, Beta-2 adrenergic receptor (Homo sapiens, UniProt P07550); assay: beta2AR agonists driving receptor internalization, dose response, cell-based, FAP fluorogen, flow cytometry, cherry pick 1 (AID 588763); assay type: functional
[34] = target: T5, Beta-2 adrenergic receptor; assay: Dose response for HTS for Beta-2AR agonists via FAP method from Powderset3.; assay type: functional
[35] = target: Beta-lactamase (Pseudomonas aeruginosa, UniProt Q79MP6);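 further: biochemical dose-response test of metallo-beta-lactamase enzyme inhibition, read out by epi-absorbance; purified recombinant IMP-1 metallo-beta-lactamase with nitrocefin as substrate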
[36] = target: Beta-lactamase (Salmonella choleraesuis (strain SC-B67), UniProt Q5J463)
Beta-lactamase (Salmonella choleraesuis (strain SC-B67), UniProt Q5J463), sequence (Q5J463 whole entry): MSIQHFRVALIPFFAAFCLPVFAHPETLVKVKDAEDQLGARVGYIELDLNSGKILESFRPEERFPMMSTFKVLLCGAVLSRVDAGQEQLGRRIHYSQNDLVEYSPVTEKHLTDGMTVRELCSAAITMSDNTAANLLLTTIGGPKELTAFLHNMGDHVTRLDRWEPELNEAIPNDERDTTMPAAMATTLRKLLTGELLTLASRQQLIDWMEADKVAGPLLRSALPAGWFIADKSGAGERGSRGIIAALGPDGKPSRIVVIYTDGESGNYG

T5 sequence (P07550 whole entry): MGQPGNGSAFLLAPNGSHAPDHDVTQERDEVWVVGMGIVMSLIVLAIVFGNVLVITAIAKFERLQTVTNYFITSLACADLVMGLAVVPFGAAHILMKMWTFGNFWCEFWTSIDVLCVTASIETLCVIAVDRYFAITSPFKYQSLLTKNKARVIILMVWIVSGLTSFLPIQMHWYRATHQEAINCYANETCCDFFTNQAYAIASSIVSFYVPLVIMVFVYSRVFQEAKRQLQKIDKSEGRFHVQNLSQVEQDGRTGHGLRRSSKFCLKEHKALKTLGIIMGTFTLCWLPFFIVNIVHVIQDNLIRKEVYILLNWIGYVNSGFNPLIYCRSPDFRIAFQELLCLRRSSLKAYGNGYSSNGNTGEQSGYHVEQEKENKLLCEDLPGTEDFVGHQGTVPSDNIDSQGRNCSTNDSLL
26S proteasome non-ATPase regulatory subunit 14, sequence (O00487 whole entry): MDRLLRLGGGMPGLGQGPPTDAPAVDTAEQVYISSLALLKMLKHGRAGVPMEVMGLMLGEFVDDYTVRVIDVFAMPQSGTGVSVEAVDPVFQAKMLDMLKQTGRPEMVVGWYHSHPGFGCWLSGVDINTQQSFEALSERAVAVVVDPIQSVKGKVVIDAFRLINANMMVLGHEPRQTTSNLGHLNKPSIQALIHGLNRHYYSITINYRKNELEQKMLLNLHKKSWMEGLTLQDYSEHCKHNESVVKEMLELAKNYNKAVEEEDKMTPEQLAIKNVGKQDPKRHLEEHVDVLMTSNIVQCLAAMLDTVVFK
Dual specificity protein phosphatase 3, sequence (P51452 whole entry): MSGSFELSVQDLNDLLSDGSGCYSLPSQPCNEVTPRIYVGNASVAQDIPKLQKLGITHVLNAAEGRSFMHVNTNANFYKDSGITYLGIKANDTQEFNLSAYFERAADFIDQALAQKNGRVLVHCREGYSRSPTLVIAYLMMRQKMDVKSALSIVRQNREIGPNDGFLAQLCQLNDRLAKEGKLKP
Tumor necrosis factor, sequence (P01375 whole entry): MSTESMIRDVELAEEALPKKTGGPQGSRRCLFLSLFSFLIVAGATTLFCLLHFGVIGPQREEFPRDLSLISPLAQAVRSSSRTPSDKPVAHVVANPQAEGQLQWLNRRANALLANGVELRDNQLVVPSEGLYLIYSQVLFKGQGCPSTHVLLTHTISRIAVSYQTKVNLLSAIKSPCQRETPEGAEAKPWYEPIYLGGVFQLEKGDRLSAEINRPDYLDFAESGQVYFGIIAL
72 kDa type IV collagenase, sequence (P08253 whole entry): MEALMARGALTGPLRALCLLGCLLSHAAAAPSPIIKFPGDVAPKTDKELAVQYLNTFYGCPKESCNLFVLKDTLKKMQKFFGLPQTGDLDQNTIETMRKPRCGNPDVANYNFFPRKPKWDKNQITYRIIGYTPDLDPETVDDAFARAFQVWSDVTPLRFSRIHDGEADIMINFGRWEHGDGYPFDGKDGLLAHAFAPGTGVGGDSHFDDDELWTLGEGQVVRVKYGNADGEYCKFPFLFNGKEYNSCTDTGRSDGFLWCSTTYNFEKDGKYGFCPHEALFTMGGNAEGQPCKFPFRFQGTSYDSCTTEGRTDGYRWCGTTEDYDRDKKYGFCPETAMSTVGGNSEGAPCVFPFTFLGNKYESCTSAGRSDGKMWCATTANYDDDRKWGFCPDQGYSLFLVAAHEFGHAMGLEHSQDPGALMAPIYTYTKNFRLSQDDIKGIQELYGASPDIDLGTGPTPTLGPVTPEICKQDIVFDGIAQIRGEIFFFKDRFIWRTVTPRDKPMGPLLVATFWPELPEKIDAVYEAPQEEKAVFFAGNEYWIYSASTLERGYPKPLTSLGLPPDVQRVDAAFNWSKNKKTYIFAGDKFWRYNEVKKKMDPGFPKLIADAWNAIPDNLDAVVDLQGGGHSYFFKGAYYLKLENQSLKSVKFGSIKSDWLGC
Nucleotide-binding oligomerization domain-containing protein 2, sequence (Q9HC29 whole entry, the tested form may be a part): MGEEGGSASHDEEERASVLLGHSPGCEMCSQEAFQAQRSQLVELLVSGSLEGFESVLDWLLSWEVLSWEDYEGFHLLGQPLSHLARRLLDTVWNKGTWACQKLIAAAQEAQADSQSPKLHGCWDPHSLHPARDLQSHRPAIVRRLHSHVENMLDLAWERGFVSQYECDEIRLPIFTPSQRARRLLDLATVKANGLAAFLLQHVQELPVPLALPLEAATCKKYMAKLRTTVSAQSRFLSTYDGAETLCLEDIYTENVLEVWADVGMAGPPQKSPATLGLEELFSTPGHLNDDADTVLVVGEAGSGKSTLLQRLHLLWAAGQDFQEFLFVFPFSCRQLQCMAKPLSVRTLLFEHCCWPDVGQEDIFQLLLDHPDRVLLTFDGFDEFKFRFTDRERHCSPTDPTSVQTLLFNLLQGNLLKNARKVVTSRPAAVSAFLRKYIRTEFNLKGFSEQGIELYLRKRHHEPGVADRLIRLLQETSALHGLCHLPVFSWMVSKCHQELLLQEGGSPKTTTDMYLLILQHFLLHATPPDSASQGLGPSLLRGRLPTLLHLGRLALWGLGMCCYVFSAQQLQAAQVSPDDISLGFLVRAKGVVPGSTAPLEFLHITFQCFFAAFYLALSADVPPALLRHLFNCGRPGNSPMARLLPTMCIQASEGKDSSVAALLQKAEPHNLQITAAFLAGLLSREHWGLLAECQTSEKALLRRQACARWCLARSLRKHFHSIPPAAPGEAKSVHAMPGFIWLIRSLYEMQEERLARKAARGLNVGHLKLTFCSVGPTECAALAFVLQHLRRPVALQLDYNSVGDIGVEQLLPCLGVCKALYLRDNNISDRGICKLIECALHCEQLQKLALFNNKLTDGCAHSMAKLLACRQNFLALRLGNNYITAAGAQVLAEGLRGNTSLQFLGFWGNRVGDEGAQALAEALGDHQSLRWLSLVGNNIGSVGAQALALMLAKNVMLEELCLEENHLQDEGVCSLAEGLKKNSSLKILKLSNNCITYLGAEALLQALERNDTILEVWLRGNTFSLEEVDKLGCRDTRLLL
ALK tyrosine kinase receptor, sequence (Q9UM73 whole entry): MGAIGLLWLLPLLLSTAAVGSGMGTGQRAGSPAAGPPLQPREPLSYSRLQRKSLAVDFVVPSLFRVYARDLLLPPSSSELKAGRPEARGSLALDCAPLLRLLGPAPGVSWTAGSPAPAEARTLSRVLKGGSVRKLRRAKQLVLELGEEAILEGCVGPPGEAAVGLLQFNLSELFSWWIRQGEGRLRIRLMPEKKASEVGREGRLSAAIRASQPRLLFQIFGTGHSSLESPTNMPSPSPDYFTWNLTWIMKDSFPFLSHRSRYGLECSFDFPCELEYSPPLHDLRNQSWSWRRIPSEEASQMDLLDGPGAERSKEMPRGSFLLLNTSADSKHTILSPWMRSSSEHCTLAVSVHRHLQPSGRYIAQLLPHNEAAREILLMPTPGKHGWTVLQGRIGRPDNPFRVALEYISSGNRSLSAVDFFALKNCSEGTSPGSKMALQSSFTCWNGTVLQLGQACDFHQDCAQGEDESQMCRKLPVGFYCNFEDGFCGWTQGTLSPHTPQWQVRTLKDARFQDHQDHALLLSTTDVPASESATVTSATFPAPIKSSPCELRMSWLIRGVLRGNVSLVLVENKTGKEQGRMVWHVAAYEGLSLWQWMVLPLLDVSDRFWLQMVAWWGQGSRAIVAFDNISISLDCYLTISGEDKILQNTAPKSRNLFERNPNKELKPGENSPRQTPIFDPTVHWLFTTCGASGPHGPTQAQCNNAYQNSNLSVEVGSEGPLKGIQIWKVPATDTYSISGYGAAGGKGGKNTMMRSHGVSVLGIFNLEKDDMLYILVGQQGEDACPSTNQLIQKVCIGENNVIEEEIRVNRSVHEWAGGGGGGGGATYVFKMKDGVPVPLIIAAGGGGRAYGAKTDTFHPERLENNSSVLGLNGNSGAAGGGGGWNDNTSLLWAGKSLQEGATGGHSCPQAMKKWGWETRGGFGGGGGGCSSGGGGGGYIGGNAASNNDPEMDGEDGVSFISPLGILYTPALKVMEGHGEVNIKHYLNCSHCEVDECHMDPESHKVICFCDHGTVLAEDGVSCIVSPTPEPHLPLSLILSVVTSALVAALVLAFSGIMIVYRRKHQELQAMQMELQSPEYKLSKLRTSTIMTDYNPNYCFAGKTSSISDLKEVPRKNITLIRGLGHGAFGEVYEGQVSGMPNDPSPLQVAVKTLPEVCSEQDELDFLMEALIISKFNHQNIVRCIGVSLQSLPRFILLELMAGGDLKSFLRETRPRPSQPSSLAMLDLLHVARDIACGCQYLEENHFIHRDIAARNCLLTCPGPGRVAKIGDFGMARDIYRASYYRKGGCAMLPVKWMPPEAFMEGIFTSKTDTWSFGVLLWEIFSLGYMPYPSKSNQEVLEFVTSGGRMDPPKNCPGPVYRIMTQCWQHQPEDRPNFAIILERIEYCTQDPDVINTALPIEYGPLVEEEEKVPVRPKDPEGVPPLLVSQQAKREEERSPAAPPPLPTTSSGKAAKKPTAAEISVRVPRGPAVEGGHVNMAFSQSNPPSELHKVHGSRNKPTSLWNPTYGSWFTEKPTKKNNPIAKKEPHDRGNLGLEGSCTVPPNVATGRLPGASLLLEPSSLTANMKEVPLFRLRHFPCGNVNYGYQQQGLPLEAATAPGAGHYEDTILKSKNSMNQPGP
Beta-lactamase (Pseudomonas aeruginosa, UniProt Q79MP6), sequence (Q79MP6 whole entry): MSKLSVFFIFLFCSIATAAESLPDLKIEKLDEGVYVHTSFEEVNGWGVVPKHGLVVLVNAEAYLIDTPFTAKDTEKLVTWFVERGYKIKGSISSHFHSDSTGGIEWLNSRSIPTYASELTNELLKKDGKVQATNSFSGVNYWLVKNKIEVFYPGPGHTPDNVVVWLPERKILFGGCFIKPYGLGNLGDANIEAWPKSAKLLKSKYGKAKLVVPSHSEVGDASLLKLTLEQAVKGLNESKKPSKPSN

Structure (SMILES): Cc1ccc(NC(=O)C2CCN(S(=O)(=O)c3ccc4c(c3)NC(=O)C(C)S4)CC2)cc1Cl (stereo unspecified)
- AC50 [1]: 2.48 µM (active)
- IC50 [2]: 2.87 µM (active)
- IC50 [3]: > 100 µM (inactive)
- AC50 [4]: 2.83 µM (active)
- IC50 [5]: 4.25 µM (active)
- IC50 [6]: 2.72 µM (active)
- IC50 [7]: 2.84 µM (active)
- AC50 [8]: 15.3 µM (active)
- EC50 [9]: 8.36 µM (active)
- IC50 [10]: 5.08 µM (active)
- AC50 [11]: 3.7 µM (active)
- IC50 [12]: 49.4 µM (active)
- IC50 [13]: 2.94 µM (inactive)
- AC50 [14]: 6.82 µM (active)
- IC50 [15]: > 20 µM (inactive)
- IC50 [16]: 46 µM (active)
- EC50 [17]: 5.35 µM (active)

Structure (SMILES): COC(=O)[C@@H]1COC(c2ccc(F)cc2F)=N1
- EC50 [18]: > 100 µM (inactive)

Structure (SMILES): O=C(COC(=O)c1ccc([N+](=O)[O-])o1)NCc1ccc2c(c1)OCO2
- IC50 [19]: 11.1 µM (active)
- IC50 [20]: 5.11 µM (active)

Structure (SMILES): COc1ccc(S(=O)(=O)Nc2cccc3ccc(O)cc23)cc1
- AC50 [21]: > 52 µM (inactive)

Structure (SMILES): NS(=O)(=O)c1ccc(N/C(S)=N\CCc2ccccc2)cc1
- IC50 [22]: 5.84 µM (active)
- IC50 [23]: > 80 µM (inactive)
- IC50 [24]: 7.06 µM (active)
- EC50 [25]: 2.56 µM (active)
- IC50 [26]: 3.17 µM (active)
- IC50 [27]: > 29.9 µM (inactive)
- EC50 [28]: > 29.9 µM (inactive)

Structure (SMILES): COc1ccc(S(=O)(=O)N(C)C[C@H]2Oc3ncc(/C=C/c4ccccc4)cc3C(=O)N([C@H](C)CO)C[C@@H]2C)cc1
- AbsAC35 [29]: 45.64 µM

Structure (SMILES): Cc1nn(-c2nc3ccccc3[nH]2)c(O)c1C1OC(=O)c2ccccc21 (stereo unspecified)
- Ki [30]: 2 µM (active)
- Ki [31]: 200 nM (active)

Structure (SMILES): N#C[C@H]1[C@@H](c2ccccc2)[C@@H](CO)N1C(=O)Nc1cccc(F)c1
- AC50 [32]: 1.76 µM (active)

Structure (SMILES): CC(=O)Nc1ccc(S(=O)(=O)N2CCC(Oc3ccc(-n4cnnn4)cc3)CC2)cc1
- EC50 [33]: 126 nM (active)
- EC50 [34]: 36.6 nM (active)

Structure (SMILES): CC(=O)Nc1ccc(N2C(=O)c3cccc4c(O)ccc(c34)C2=O)cc1
- IC50 [35]: 13.7 µM (inactive)
- IC50 [36]: 7 µM (active)
